What was measured:
[1] = biological target: T1, Amine oxidase [flavin-containing] A (Homo sapiens, UniProt P21397); type: functional
T1 sequence (P21397 whole entry): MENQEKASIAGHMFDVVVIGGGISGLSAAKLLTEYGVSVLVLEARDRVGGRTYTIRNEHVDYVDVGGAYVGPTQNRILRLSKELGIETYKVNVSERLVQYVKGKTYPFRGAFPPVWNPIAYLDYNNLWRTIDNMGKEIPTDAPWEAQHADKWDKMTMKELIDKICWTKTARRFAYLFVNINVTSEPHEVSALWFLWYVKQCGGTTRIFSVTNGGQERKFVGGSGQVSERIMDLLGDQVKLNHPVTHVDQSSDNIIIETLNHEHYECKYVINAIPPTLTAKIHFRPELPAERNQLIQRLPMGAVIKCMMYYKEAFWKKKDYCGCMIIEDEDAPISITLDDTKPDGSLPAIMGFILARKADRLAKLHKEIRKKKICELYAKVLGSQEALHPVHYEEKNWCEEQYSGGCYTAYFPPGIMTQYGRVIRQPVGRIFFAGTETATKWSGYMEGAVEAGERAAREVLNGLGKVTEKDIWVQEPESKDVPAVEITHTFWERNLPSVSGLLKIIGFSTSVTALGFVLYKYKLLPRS

[2] = biological target: T2, Alpha-2A adrenergic receptor (Homo sapiens, UniProt P08913)
T2 sequence (P08913 whole entry): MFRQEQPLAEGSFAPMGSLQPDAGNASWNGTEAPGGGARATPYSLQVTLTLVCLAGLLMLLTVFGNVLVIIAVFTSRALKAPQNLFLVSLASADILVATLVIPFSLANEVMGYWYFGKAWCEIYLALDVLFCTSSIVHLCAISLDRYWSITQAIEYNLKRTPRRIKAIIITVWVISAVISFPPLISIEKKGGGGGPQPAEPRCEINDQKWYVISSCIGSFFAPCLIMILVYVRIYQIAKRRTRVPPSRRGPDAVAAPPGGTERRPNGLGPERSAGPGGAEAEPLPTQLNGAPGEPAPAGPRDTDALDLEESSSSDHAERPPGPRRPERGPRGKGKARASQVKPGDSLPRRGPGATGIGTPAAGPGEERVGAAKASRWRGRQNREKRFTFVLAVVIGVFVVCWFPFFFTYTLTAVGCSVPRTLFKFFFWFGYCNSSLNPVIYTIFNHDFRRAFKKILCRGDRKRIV

[3] = biological target: Vascular endothelial growth factor receptor 2 (Homo sapiens, UniProt P35968); type: functional
Vascular endothelial growth factor receptor 2, sequence (P35968 whole entry): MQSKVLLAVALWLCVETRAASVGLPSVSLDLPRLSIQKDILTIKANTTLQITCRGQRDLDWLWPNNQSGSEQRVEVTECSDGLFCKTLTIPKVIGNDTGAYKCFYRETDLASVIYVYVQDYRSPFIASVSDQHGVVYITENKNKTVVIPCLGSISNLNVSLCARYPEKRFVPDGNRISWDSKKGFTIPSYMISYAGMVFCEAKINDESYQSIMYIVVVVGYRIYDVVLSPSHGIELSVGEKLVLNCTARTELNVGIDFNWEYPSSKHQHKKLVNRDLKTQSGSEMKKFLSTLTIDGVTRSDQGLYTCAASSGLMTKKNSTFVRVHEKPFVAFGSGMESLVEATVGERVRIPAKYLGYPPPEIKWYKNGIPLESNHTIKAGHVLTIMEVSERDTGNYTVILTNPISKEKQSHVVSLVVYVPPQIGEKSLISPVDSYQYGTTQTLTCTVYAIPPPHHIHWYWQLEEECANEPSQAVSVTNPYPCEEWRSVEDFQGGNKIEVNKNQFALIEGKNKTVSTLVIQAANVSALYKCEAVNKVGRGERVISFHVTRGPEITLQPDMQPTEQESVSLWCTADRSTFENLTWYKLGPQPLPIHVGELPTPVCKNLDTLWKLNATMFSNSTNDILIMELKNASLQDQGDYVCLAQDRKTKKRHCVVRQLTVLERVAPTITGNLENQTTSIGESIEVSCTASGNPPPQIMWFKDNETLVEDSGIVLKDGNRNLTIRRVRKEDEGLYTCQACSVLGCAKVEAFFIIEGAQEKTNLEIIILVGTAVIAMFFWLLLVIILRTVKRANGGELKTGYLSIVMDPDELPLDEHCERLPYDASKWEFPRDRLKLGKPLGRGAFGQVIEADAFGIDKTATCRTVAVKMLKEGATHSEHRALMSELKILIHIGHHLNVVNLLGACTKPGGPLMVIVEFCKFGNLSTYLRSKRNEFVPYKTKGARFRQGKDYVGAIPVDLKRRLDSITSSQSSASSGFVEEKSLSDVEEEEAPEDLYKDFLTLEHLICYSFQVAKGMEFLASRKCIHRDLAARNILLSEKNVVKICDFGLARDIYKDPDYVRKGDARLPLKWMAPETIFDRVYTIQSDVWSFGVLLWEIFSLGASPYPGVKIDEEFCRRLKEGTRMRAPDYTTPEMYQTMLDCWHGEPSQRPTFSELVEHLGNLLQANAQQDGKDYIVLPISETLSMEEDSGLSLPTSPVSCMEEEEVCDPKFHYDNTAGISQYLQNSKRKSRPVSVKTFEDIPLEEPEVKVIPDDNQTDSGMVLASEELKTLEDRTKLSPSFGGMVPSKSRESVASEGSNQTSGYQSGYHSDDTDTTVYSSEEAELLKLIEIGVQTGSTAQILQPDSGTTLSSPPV

Acetylcholinesterase = Acetylcholinesterase (Homo sapiens, UniProt P22303); type: functional
Acetylcholinesterase, sequence (P22303 whole entry): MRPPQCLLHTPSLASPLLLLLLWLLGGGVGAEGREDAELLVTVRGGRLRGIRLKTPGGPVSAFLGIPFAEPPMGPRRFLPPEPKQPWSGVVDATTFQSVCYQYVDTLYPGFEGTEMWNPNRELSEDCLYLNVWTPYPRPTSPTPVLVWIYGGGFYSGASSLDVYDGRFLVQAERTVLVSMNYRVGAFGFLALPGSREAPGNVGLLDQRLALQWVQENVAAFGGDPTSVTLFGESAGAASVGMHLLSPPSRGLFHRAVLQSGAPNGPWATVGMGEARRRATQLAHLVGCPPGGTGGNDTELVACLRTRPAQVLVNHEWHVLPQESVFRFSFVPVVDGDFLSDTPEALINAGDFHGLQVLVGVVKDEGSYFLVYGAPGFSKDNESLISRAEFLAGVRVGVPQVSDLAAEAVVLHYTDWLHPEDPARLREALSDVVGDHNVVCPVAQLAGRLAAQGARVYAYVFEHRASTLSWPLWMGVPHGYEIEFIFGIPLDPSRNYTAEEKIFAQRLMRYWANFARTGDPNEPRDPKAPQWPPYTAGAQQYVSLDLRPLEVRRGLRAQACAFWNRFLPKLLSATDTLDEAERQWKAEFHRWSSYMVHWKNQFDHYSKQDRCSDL

[4] = biological target: 5-hydroxytryptamine receptor 2B (Homo sapiens, UniProt P41595); type: functional, cell-based
5-hydroxytryptamine receptor 2B, sequence (P41595 whole entry): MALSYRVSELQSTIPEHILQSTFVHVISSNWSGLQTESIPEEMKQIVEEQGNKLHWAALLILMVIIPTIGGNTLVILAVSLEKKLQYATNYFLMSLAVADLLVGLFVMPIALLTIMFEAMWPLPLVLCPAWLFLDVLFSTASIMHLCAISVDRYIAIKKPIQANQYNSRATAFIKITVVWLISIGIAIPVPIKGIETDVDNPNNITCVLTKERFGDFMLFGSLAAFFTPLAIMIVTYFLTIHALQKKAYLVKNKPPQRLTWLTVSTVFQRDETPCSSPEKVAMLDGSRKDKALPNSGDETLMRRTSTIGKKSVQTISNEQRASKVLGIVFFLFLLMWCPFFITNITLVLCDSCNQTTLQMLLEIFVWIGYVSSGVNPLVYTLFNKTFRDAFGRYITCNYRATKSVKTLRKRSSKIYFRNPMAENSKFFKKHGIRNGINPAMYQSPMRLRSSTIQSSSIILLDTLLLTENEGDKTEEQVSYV

[5] = biological target: Gamma-aminobutyric acid receptor subunit alpha-1 (Rattus norvegicus, UniProt P62813); type: functional
Gamma-aminobutyric acid receptor subunit alpha-1, sequence (P62813 whole entry): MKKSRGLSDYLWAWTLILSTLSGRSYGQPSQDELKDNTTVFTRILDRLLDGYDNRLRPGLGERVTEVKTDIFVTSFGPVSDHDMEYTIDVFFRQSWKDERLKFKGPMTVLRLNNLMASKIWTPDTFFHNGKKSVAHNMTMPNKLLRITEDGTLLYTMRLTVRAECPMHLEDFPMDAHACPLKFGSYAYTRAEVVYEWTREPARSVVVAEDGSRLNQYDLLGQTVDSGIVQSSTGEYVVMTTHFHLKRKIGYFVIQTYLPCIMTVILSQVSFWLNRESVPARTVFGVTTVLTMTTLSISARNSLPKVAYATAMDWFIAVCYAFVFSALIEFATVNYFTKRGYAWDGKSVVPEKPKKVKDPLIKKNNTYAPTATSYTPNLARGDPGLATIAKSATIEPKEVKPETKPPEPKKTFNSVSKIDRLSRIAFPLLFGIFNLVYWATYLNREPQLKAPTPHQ

Endothelin-1 receptor = biological target: T3, Endothelin-1 receptor (Homo sapiens, UniProt P25101)
T3 sequence (P25101 whole entry): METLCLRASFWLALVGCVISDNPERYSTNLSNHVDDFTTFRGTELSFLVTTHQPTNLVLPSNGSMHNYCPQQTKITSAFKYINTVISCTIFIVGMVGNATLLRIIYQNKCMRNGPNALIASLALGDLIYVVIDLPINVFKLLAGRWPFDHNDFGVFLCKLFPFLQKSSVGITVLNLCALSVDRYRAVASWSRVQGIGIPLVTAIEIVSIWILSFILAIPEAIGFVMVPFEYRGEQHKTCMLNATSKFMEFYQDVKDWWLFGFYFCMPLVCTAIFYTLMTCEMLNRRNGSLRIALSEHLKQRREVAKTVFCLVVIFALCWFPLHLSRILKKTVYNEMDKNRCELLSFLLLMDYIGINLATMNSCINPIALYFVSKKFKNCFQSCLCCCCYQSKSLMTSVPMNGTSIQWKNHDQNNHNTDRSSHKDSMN

Histamine H1 receptor = Histamine H1 receptor (Homo sapiens, UniProt P35367)
Histamine H1 receptor, sequence (P35367 whole entry): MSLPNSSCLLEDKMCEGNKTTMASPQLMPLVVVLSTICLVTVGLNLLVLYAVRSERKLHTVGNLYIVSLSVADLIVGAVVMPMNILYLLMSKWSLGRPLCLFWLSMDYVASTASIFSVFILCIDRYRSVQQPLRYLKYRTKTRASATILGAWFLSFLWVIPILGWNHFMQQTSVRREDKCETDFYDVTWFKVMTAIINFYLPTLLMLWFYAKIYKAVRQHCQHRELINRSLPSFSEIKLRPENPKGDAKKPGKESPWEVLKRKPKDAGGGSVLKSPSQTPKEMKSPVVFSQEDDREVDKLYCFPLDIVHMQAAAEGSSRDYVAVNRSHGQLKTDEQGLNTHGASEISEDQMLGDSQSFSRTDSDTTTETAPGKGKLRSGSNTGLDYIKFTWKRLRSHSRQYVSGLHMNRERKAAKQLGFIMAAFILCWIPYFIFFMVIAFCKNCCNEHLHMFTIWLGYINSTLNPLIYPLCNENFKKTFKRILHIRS

[6] = biological target: T4, Alpha-1A adrenergic receptor (Homo sapiens, UniProt P35348); type: functional, cell-based
T4 sequence (P35348 whole entry): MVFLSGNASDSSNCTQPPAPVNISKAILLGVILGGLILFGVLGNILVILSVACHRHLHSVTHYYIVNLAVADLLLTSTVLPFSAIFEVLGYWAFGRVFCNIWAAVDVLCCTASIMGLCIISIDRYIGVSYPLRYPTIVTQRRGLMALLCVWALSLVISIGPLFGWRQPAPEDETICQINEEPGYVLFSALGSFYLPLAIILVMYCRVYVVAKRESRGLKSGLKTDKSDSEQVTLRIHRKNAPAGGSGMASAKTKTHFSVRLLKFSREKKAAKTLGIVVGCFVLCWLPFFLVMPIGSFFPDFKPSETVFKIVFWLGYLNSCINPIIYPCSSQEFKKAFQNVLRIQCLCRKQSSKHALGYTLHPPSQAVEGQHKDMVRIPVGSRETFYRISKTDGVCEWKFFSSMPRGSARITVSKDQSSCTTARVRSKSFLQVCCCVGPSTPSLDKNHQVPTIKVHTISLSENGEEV

Glucocorticoid receptor = biological target: T5, Glucocorticoid receptor (Homo sapiens, UniProt P04150)
T5 sequence (P04150 whole entry): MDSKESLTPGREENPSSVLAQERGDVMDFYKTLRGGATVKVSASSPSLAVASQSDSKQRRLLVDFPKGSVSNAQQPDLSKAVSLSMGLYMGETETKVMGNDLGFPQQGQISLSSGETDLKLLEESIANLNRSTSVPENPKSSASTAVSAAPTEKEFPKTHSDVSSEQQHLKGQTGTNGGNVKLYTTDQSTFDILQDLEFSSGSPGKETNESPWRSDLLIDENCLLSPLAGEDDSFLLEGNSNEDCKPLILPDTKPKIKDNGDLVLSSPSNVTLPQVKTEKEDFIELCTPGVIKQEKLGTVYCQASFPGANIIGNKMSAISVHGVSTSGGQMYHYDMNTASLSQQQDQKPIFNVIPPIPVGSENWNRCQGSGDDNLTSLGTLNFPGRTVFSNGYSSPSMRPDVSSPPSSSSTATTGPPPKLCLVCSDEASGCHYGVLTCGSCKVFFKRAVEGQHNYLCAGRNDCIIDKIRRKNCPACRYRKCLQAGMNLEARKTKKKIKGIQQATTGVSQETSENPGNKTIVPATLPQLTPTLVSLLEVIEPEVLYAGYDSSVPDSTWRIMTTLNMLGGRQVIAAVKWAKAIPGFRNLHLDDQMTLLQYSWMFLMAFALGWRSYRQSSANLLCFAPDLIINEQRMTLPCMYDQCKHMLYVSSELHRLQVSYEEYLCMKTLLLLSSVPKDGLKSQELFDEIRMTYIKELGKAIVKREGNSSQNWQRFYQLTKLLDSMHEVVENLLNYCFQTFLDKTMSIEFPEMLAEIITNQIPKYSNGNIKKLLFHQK
Also: assay procedure not described here.

## COc1cc2c(cc1OC)CC(=O)N(CCCN(C)C[C@H]1Cc3cc(OC)c(OC)cc31)CC2 [IVABRADINE]
[1]
  AC50: > 30 µM
[2]
  AC50: > 30 µM
[3]
  AC50: > 30 µM
Acetylcholinesterase
  AC50: > 30 µM

## CCC(=O)O[C@]1(C(=O)SCF)[C@H](C)C[C@H]2[C@@H]3C[C@H](F)C4=CC(=O)C=C[C@]4(C)[C@@]3(F)[C@@H](O)C[C@@]21C [FLUTICASONE PROPIONATE]
[1]
  AC50: > 30 µM
[2]
  AC50: > 30 µM
[4]
  AC50: > 30 µM
[5]
  AC50: > 30 µM
Endothelin-1 receptor
  AC50: > 30 µM
[3]
  AC50: > 30 µM
Histamine H1 receptor
  AC50: > 30 µM
[6]
  AC50: > 30 µM
Acetylcholinesterase
  AC50: > 30 µM

## COc1cc(N2CCC(N3CCN(C)CC3)CC2)ccc1Nc1ncc(Cl)c(Nc2ccccc2P(C)(C)=O)n1 [BRIGATINIB]
[1]
  AC50: > 30 µM
[2]
  AC50: > 30 µM
[3]
  AC50: 0.183 µM
Acetylcholinesterase
  AC50: > 30 µM

## CC(C)(C)NC[C@H](O)COc1cccc2c1CCCC2=O [LEVOBUNOLOL]
[1]
  AC50: > 30 µM
[2]
  AC50: > 30 µM
[3]
  AC50: > 30 µM
Acetylcholinesterase
  AC50: > 30 µM

## CCOC(=O)[C@H](CCc1ccccc1)N[C@@H](C)C(=O)N(CC(=O)O)C1Cc2ccccc2C1
[1]
  AC50: > 30 µM
[2]
  AC50: > 30 µM
[3]
  AC50: > 30 µM
Acetylcholinesterase
  AC50: > 30 µM

## CCC(=O)O[C@]1(C(=O)CCl)[C@@H](C)C[C@H]2[C@@H]3C[C@H](F)C4=CC(=O)C=C[C@]4(C)[C@@]3(F)[C@@H](O)C[C@@]21C [HALOBETASOL PROPIONATE]
[1]
  AC50: > 30 µM
[2]
  AC50: > 30 µM
[3]
  AC50: > 30 µM
Acetylcholinesterase
  AC50: > 30 µM

## NCC(CC(=O)O)c1ccccc1 (stereo not drawn) [PHENIBUT]
[1]
  AC50: > 30 µM
[2]
  AC50: > 30 µM
[3]
  AC50: > 30 µM
Acetylcholinesterase
  AC50: > 30 µM

## c1ccc2c(c1)CCc1ccccc1N2C1CN2CCC1CC2 (stereo not drawn) [QUINUPRAMINE]
[1]
  AC50: > 30 µM
[2]
  AC50: 13.2 µM
[3]
  AC50: > 30 µM
Acetylcholinesterase
  AC50: > 30 µM

## CCOC(=O)N1CSC[C@H]1C(=O)O [TELMESTEINE]
[1]
  AC50: > 30 µM
[2]
  AC50: > 30 µM
[3]
  AC50: > 30 µM
Acetylcholinesterase
  AC50: > 30 µM

## Cc1ncc(COP(=O)(O)O)c(C=O)c1O [PYRIDOXAL PHOSPHATE ANHYDROUS]
[1]
  AC50: > 30 µM
[2]
  AC50: > 30 µM
[3]
  AC50: > 30 µM
Acetylcholinesterase
  AC50: > 30 µM

## CC(N)Cc1ccc(O)cc1 (stereo not drawn) [HYDROXYAMPHETAMINE]
[1]
  AC50: > 30 µM
[2]
  AC50: > 30 µM
[3]
  AC50: > 30 µM
Acetylcholinesterase
  AC50: > 30 µM

## NC(=O)OCC(O)COc1ccc(Cl)cc1 (stereo not drawn) [CHLORPHENESIN CARBAMATE]
[1]
  AC50: > 30 µM
[2]
  AC50: > 30 µM
[3]
  AC50: > 30 µM
Acetylcholinesterase
  AC50: > 30 µM

## C=CCSCC1Nc2cc(Cl)c(S(N)(=O)=O)cc2S(=O)(=O)N1 (stereo not drawn) [ALTHIAZIDE]
[1]
  AC50: > 30 µM
[2]
  AC50: > 30 µM
[3]
  AC50: > 30 µM
Acetylcholinesterase
  AC50: > 30 µM

## CN1CCN(C2=Nc3ccccc3Oc3ccc(Cl)cc32)CC1 [LOXAPINE]
[1]
  AC50: > 30 µM
[5]
  AC50: > 10 µM
Endothelin-1 receptor
  AC50: > 30 µM
[3]
  AC50: > 30 µM
Glucocorticoid receptor
  AC50: > 30 µM
[6]
  AC50: 0.44 µM
Acetylcholinesterase
  AC50: > 30 µM

## CN1C(=O)/C(=N\NC(N)=S)c2ccccc21 [METHISAZONE]
[1]
  AC50: > 30 µM
[2]
  AC50: > 30 µM
[3]
  AC50: > 10 µM
Acetylcholinesterase
  AC50: > 30 µM

## COC(=O)c1ccc(O)cc1 [METHYLPARABEN]
[1]
  AC50: > 30 µM
[2]
  AC50: > 30 µM
[3]
  AC50: > 30 µM
Acetylcholinesterase
  AC50: > 30 µM

## Cc1ccccc1N1CCN(CCc2nnc3n2CCCC3)CC1 [DAPIPRAZOLE]
[1]
  AC50: > 30 µM
[2]
  AC50: 3.77 µM
[3]
  AC50: > 30 µM
Acetylcholinesterase
  AC50: > 30 µM

## COc1ccc(CN(CCN(C)C)c2ccccn2)cc1 [PYRILAMINE]
[1]
  AC50: > 30 µM
[2]
  AC50: 7.07 µM
[3]
  AC50: > 30 µM
Acetylcholinesterase
  AC50: > 30 µM

## CC(C)N(CCNC(=O)CN1CCCC1=O)C(C)C
[1]
  AC50: > 30 µM
[2]
  AC50: > 30 µM
[3]
  AC50: > 30 µM
Acetylcholinesterase
  AC50: > 30 µM

## C[C@H](Cc1cc2c(c(C(N)=O)c1)N(CCCO)CC2)NCCOc1ccccc1OCC(F)(F)F [SILODOSIN]
[1]
  AC50: > 30 µM
[2]
  AC50: 1.28 µM
[3]
  AC50: > 30 µM
[6]
  AC50: 0.0029 µM
Acetylcholinesterase
  AC50: > 30 µM

## CCCc1nc(C(C)(C)O)c(C(=O)O)n1Cc1ccc(-c2ccccc2-c2nnn[nH]2)cc1 [OLMESARTAN]
[1]
  AC50: > 30 µM
[2]
  AC50: > 30 µM
[3]
  AC50: > 30 µM
Acetylcholinesterase
  AC50: > 30 µM

## CN(C)CCOC(c1ccccc1)c1ccc(Br)cc1 (stereo not drawn) [BROMODIPHENHYDRAMINE]
[1]
  AC50: > 30 µM
[2]
  AC50: 8.38 µM
[3]
  AC50: > 30 µM
Acetylcholinesterase
  AC50: > 30 µM

## Cc1cc(NC(=O)C2=C(O)c3ccccc3S(=O)(=O)N2C)no1 [ISOXICAM]
[1]
  AC50: > 30 µM
[2]
  AC50: > 30 µM
[3]
  AC50: 24.4 µM
Acetylcholinesterase
  AC50: > 30 µM

## CC1=CCC(C(C)(C)O)CC1O (stereo not drawn) [SOBREROL]
[1]
  AC50: > 30 µM
[2]
  AC50: > 30 µM
[3]
  AC50: > 30 µM
Acetylcholinesterase
  AC50: > 30 µM

## Cc1c(N(C)CS(=O)(=O)O)c(=O)n(-c2ccccc2)n1C [METAMIZOLE]
[1]
  AC50: > 30 µM
[2]
  AC50: > 30 µM
[3]
  AC50: > 30 µM
Acetylcholinesterase
  AC50: > 30 µM

## Cc1cc(N)c2ccccc2[n+]1CCCCCCCCCC[n+]1c(C)cc(N)c2ccccc21
[1]
  AC50: 16.8 µM
[2]
  AC50: 0.464 µM
[3]
  AC50: > 30 µM
Acetylcholinesterase
  AC50: 0.0264 µM

Source: ChEMBL document CHEMBL5291721, “A preclinical secondary pharmacology resource illuminates target-adverse drug reaction associations of marketed drugs” (Nat Commun, 2023)
